3 compounds from patent US10716805B2, “Formulation for release of nitric oxide” (Glanotech Limited, priority 2018, dated 2020) can be followed below.

“Also recorded” adds a separate entry of the source.

The test system of one data set is corpus cavernosum tissue. Put plainly: In-vitro relaxation/contraction of rat corpus cavernosum tissue (force displacement transducer). Type of data set: cell-based. As to conditions: for relaxation of the tissue of the corpora cavernosa pre-constricted with norepinephrine (vasodilatory effect): scalar solutions 10^−s M to 10^−3 M after norepinephrine constriction of about 1.5 mN. The text has this: In particular, this model is used for planning experiments aimed at checking the vasodilatory action of NO on vascular smooth muscle cells, since the methodology presented by the authors allows samples of corpus cavernosum tissue to be obtained from rats, on which studies of response to various exogenous molecules can be conducted, to detect their relaxation/contraction effects on smooth muscle cells.
We used 20 adult Wistar-type rats weighing between 175 and 200 g; after having sacrificed the rats we obtained corpus cavernosum tissues as described by the methods and placed these in a Krebs solution (in mM: 118 NaCl, 4.7 KCl, 1.2 KH2PO4, 1.2 MgSO4, 1.5 CaCl2, 25 NaHCO3, 11 glucose).
A single sample was taken from each rat.
The excised tissues were then put in 10 mL Krebs solution and held in place by two metal arms to allow assessment of any changes in the forces observed and assessed by the Grass FT03 model (using a force displacement transducer apparatus to assess the muscle tension of tissues, calibrated in mN). The saline solution containing the tissues (Krebs solution) was kept at pH 7.4±0.1 and at 37° C., with oxygenation using a mixture of 95% oxygen and 5% carbon dioxide.

The nature of data set [1]: Formation and stability of nitrosothiol after mixing of phases A and B (visible UV absorption spectrum). As to conditions: at room temperature. The data set is classed as physicochemical. The procedure:
The reaction mixture is prepared by dissolving the following amounts of reagents in 5 mL propylene glycol: fumaric acid 10 mM; ascorbic acid between 30 and 50 mM (PHASE A).
A solid phase, consisting of a mixture of pantetheine, sodium nitrite and powdered copper sulfate, is added rapidly to the solution obtained, in a quantity such that their concentration in the final reaction volume amounts to: pantetheine 10 mM, sodium nitrite 15 mM; copper sulfate 1 mM (PHASE B). Mixing is done at room temperature (25° C.) (Fukuto et al., 2013).
The S-nitroso compound observed, which was absent […] the phases were mixed, is attributable to the S-nitroso pantetheine derivative.
At the same time, owing to the catalytic action of the traces of copper present, the corresponding nitrosothiol is also formed, and remains sufficiently stable for more than 1 hour at room temperature. Therefore, this formulation allows the rapid formation of nitrogen monoxide in a rapidly diffusible form and, at the same time, the formation of nitrosothiol that is sufficiently stable for the sustained release of nitrogen monoxide over time.

The test system of data set [2] is rat model with type 1 diabetes induced by streptozotocin. Put plainly: In-vivo test of sexual function in diabetic rat models. The following applies: for EL (Ejaculation latency) / IF (Introduction frequency) / IL (Introduction latency) / MF (Mating frequency) / ML (Mating latency) / PEI (Post-ejaculatory interval): diabetic rat. The procedure:
Next we tested the possible beneficial effects of SNO-pantetheine on sexual function in a rat model with type 1 diabetes induced by streptozotocin, which is typically accompanied by deficit of sexual activity.
In short, male Wistar rats were assigned to a cage (45×50×35 cm) covered in glass and lit with red light. Training took place every day after 5 pm for about 30 min, and after 10 minutes of acclimatization a female rat in an oestrogenic phase was introduced into the cage. We then observed the sexual behaviour of diabetic rats vs. the relevant controls by measuring standard parameters (Burnett et al., 1995).

Setting [3] is: SNO-pantetheine group, Day 0 (baseline).
Setting [4] is: topical SNO-pantetheine, Day 30.

For the compound S-nitrosothiol of alpha lipoic acid, the “relaxation of the tissue of the corpora cavernosa pre-constricted with norepinephrine (vasodilatory effect)” value in the data set on corpus cavernosum tissue is “behaviour that is very similar to that of the S-nitrosothiol of pantetheine; also recorded: exhibit the desired vasodilatory effect”.

For the compound “S-nitrosothiol of pantetheine [SNO-pantetheine]”, in data set [1], the “time nitrosothiol remains sufficiently stable” value was “more than 1 hour”. Besides, in data set [2] (setting [3]), the “EL (Ejaculation latency)” value worked out at 423.2 ± 12.5 s, the “IF (Introduction frequency)” value came out at 11.2 ± 0.9 number, the “IL (Introduction latency)” value worked out at 52.3 ± 3.9 s and the “MF (Mating frequency)” value came out at 12.0 ± 1.7 number. Moreover, in data set [2] (setting [3]), the “ML (Mating latency)” value was determined as 42.5 ± 2.9 s and the “PEI (Post-ejaculatory interval)” value worked out at 343.3 ± 10.9 s. In data set [2] (setting [4]), the “EL (Ejaculation latency)” value came to 375.8 ± 10.8 s, the “IF (Introduction frequency)” value worked out at 14.5 ± 0.8 number, the “IL (Introduction latency)” value is 44.7 ± 4.2 s and the “MF (Mating frequency)” value was determined as 11.2 ± 0.3 number. Besides, in data set [2] (setting [4]), the “ML (Mating latency)” value turned out to be 34.3 ± 2.5 s and the “PEI (Post-ejaculatory interval)” value is 386.2 ± 14.3 s. Further, the “effect on sexual behaviour in the diabetic rat model” value in data set [2] (topical application, vs. all the parameters assessed) is given as “able to induce an increase in sexual behaviour”. For the same compound, in the data set with corpus cavernosum tissue, the “relaxation of the tissue of the corpora cavernosa pre-constricted with norepinephrine (vasodilatory effect)” value was “effect of the norepinephrine was cancelled out; also recorded: exhibit the desired vasodilatory effect”.

For the compound `NC[C@H](O)c1ccc(O)c(O)c1` [norepinephrine, reference compound], the “constriction of corpus cavernosum tissue” value in the data set with corpus cavernosum tissue (scalar solutions 10^−8 M to 10^−3 M, Krebs solution pH 7.4, 37° C.) is recorded as “about 1.5 mN”.
